Target: T1, tmMBP (tmMBP2 isoform; maltodextrin-binding protein) (Thermotoga maritima, UniProt Q9S5Y1)
T1 construct: gene TM_1839; H/D-exchanged crystal, single chain in asymmetric unit
T1 sequence (Q9S5Y1 20-393): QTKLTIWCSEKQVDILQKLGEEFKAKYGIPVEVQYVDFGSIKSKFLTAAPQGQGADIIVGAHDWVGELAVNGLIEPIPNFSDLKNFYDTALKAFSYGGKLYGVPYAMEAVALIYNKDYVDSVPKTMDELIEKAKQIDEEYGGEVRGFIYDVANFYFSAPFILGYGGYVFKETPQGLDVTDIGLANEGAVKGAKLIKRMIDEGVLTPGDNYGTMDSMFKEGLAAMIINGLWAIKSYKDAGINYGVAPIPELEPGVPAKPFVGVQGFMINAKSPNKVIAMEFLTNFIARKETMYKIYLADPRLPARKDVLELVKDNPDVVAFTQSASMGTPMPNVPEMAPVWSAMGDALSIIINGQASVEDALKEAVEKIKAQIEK
Experiment: joint neutron/X-ray crystal structure
Conditions: pH 5.5 crystals, room temperature, D2O exchanged; interdomain binding site; neutron 2.10 A, X-ray 1.70 A

## OC[C@H]1O[C@H](O[C@H]2[C@H](O)[C@@H](O)[C@@H](O[C@H]3[C@H](O)[C@@H](O)[C@@H](O[C@H]4[C@H](O)[C@@H](O)C(O)O[C@@H]4CO)O[C@@H]3CO)O[C@@H]2CO)[C@H](O)[C@@H](O)[C@@H]1O (stereo partly shown) [maltotetraose]
  joint neutron/X-ray crystal structure: final refined atomic model for maltotetraose bound tmMBP have been deposited

From PMC9587032, “Mapping periplasmic binding protein oligosaccharide recognition with neutron crystallography” (Scientific Reports, 2022)
